Paper PMC4130196, “Angiotensin I-Converting Enzyme Inhibitor Derived from Cross-Linked Oyster Protein” (BioMed Research International, 2014)

Tests used:
[1] = test system: spontaneously hypertensive rats (SHR); experiment: Antihypertensive activity in vivo: SBP of SHR by tail-cuff method after intragastric administration; parameters: species or system rat
Description: Spontaneously hypertensive rats (SHR) with systolic blood pressure (SBP) between 170 and 190 mmHg and original strain Wistar Kyoto rats (WKR) with SBP between 100 and 125 mmHg were purchased from Harlan, USA (Indianapolis, USA). All rats were treated in accordance with Kyung Hee University guidelines for the care and use of laboratory animals. The animals were individually housed in stainless steel cages and adapted to 23 ± 1°C and humidity of 55 ± 5% under a 12 h light-dark cycle. The 12-week-old rats were fed a pelletized commercial chow diet for a period of 1 week after arrival and then randomly divided into five groups: untreated SHR control group (n = 3); normal WKR control group (n = 3); oyster hydrolysate-treated SHR group (100 mg/kg body weight, n = 3); sardine hydrolysate-treated SHR group (positive control, 100 mg/kg body weight, n = 3); and Captopril-treated SHR group (positive control, ACE inhibitor; 8 mg/kg body weight, n = 3). After intragastric administration of the samples using Sonde, SBP of the rats was measured by a Coda noninvasive blood pressure system (Kent Scientific Corporation, Baltimore, USA) using the tail-cuff method after prewarming for 30 min in an environmental chamber of 32°C at 0, 3, 6, 9, 12, and 24 h. Subsequent measurement of blood pressure was expressed as a percentage of that at the initial time.

in vitro = assay type: cell-based; settings: human
Description: The ACE inhibitory activities of the synthetic peptides were measured, and the cell toxicity was evaluated by cell viability testing on the hepatocyte cell line HepG2. HepG2 cells were cultured in MEM medium containing 10% fetal bovine serum. Ninety-six well plates containing 1 × 10^4 cells per well were incubated at 35°C for 24 h under 95% humidity and 5% CO2. After incubation, the synthetic peptides were added (final concentration, 200 μg/mL) and cells were incubated under the same conditions for an additional 24 h. Cell growth was assessed with the CellTiter 96 Aqueous One Solution Cell Proliferation Assay kit (Promega, Madison, WI, USA) and absorbance was determined with a microplate reader (Perkin Elmer 1420, VICTOR X Multilabel Plate readers, Waltham, MA, USA) at 490 nm. Cell viability was calculated as the percentage of absorbance of the synthetic peptide-treated groups compared with that of the untreated group (100% viability).

[2] = target: Angiotensin I-converting enzyme (UniProt P12822)
Sequence of UniProt P12822 (P12822 34-1260): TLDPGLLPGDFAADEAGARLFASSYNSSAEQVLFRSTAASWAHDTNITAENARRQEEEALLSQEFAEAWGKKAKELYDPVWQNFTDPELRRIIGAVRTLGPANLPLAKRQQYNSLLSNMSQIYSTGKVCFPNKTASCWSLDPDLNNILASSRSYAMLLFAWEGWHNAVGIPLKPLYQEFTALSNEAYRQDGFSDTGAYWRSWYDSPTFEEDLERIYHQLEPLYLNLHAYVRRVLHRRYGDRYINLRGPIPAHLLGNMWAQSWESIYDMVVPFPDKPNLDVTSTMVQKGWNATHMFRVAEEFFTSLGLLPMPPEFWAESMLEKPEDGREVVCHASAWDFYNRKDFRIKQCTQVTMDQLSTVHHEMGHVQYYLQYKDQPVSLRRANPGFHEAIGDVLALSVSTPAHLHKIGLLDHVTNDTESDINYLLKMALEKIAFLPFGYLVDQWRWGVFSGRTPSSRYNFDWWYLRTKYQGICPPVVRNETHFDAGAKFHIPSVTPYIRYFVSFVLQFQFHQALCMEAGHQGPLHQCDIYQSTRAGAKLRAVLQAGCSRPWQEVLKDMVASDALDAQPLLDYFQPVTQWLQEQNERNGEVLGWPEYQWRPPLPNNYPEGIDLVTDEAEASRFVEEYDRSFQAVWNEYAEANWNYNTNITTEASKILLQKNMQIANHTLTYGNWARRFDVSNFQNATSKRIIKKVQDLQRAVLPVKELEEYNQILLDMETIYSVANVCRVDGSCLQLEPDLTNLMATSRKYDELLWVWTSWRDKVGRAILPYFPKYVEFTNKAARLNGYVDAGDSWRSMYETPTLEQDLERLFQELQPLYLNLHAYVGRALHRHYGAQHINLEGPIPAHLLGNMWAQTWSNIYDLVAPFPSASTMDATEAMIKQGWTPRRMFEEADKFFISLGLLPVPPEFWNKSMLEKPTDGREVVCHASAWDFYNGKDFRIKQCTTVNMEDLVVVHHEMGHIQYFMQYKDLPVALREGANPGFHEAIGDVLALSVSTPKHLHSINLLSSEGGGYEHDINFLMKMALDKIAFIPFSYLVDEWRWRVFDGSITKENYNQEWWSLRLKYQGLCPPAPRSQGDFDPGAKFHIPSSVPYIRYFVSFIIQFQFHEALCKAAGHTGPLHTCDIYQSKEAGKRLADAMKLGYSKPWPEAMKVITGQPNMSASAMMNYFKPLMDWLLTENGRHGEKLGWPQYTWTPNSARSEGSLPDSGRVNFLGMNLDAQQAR

Row | IC50 of ACE inhibition (enzyme activity: hippuric acid released from HHL, by HPLC) [2] [µM] | Compound | viability at 24 h, 200 μg/mL (in vitro) [%] | further results
1 | 93.9 | YA (peptide) |  | 
2 | 68.2 | FYN (peptide) |  | 
3 | 51.5 | KY (peptide) |  | 

Second part, the compound before the results:

Row | Compound | IC50 of ACE inhibition (enzyme activity: hippuric acid released from HHL, by HPLC) [2] [µM] | viability at 24 h, 200 μg/mL (in vitro) [%] | further results
4 | C[C@H](CS)C(=O)N1CCC[C@H]1C(=O)O [Captopril] |  |  | SBP at maximum decrease, as % of the initial SBP ([1]; 8 mg/kg intragastric, 12 h after administration): 85.3 ± 4.5%; effect on SBP of SHR (in words) ([1]; oral administration, oyster and sardine hydrolysate 100 mg/kg, Captopril 8 mg/kg): not significant
5 | NCCCC[C@H](N)C(=O)N[C@@H](Cc1ccc(O)cc1)C(=O)O [KY] |  | 118 ± 7 | 
6 | NC(=O)C[C@H](NC(=O)[C@H](Cc1ccc(O)cc1)NC(=O)[C@@H](N)Cc1ccccc1)C(=O)O [FYN] |  | 110 ± 3 | 
7 | C[C@H](NC(=O)[C@@H](N)[C@@H](C)O)C(=O)N[C@@H](Cc1ccc(O)cc1)C(=O)O [TAY] |  | 105 ± 1.9 | 
8 | VK (peptide) | 29 |  | 
9 | CC(C)[C@H](N)C(=O)N[C@@H](CCCCN)C(=O)O [VK] |  | 118 ± 15.1 | 
10 | TAY (peptide) | 16.7 |  | 
